Assay results reported in patent publication US20180327367A1, “MACROCYCLIC BROAD SPECTRUM ANTIBIOTICS” (priority 2015, published 2018).
Converted amounts (≈) assume the structure as drawn. Where two headings read alike, the source gives them in different places.

Columns and labels:
[1] = system: Escherichia coli ATCC 25922; test: Minimum inhibitory concentration, broth micro-dilution (CLSI), E. coli; type: cell-based; details: Escherichia coli, ATCC25922, 22 h, 35° C., 22 hours
[2] = target: T1, SpsB (Staphylococcus aureus signal peptidase) (Staphylococcus aureus, UniProt P0A070); test: cell-based; type: biochemical; details: SpsB IC50, whole-cell S. aureus (USA300 background, overexpressing SpsB) as SpsB source; fluorogenic peptide substrate, kinetic read 30 min
T1 construct: This assay uses a suspension of Staphylococcus aureus cells as a source of SpsB instead of recombinant SpsB protein; endogenous in cells; host or cells: S. aureus, USA300 background, overexpressing SpsB (whole-cell suspension from frozen pellets)
Method in brief: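 Cleavage of an internally quenched (Dabcyl)βAla-KPAKAAE(Edans) peptide, added as 20 μM solution mixed 1:1 with cells, was followed for 30 min at 340/490 nm. SpsB came from a suspension of SpsB-overexpressing USA300 S. aureus in Tween-80-containing PBS buffer. Slopes plotted against 3-fold compound dilutions gave IC50.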

[3] = system: Methicillin Resistant Staphylococcus aureus strain USA 300, NRS384; test: Minimum inhibitory concentration, broth micro-dilution (CLSI), S. aureus; type: cell-based; details: Staphylococcus aureus, MRSA / NRS 384 / USA300, 22 h, 35° C., 22 hours
Method in brief: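 Colonies grown 20 hours at 35° C were suspended in cation-adjusted Mueller Hinton Broth with 0.002% Tween-80. Cells were then added to 2-fold compound dilutions starting at 4 or 0.5 μg/mL, at OD600 0.0005.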

[4] = system: Escherichia coli MC4100 harboring the IMP4213 (E. coli IMP); test: microbe, parasite or virus in culture; type: cell-based; details: Escherichia coli, 22 h, read-out: MIC (μg/mL) E. coli IMP, E. coli MC4100 IMP4213, increased outer-membrane permeability; 35° C., 22 hours
Method in brief: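 Ten 2-fold dilutions, from 4 μg/mL or from 0.5 μg/mL depending on protocol, are challenged with bacteria at OD600 0.0005 in Tween-80-supplemented cation-adjusted Mueller Hinton Broth. Plates incubate 22 hours at 35° C per CLSI. The E. coli IMP4213 strain has increased outer-membrane permeability.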

[5] = E. coli ATCC 25922, read-out: MIC (μg/mL) E. coli
[6] = MRSA USA 300 NRS384, read-out: MIC (μg/mL) S. aureus
[7] = read-out: MIC (μg/mL) E. coli, E. coli ATCC 25922
[8] = read-out: MIC (μg/mL) S. aureus, MRSA USA 300 NRS384

T1 sequence (P0A070 whole entry): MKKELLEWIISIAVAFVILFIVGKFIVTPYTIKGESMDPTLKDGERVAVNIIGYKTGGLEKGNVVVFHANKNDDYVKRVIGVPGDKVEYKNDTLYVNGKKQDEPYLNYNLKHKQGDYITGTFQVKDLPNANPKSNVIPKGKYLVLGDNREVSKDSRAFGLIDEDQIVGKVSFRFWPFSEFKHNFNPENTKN

SMILES | MIC [1, 5] [µg/mL] | IC50 [2] [nM] | MIC [3, 6] [µg/mL] | MIC [4] [µg/mL] | MIC [1, 7] [µg/mL] | MIC [3, 8] [µg/mL]
Cc1cc(C#Cc2ccccc2)ccc1C(=O)N[C@@H](CCN)C(=O)N(C)[C@@H]1C(=O)N[C@@H](C)C(=O)N[C@H](C(=O)NCC#N)Cc2ccc(OCCN)c(c2)-c2cc1ccc2OCCN [Compound 425] | 0.63 (≈ 0.736 µM) | 1.1 | 0.047 (≈ 0.0549 µM) | 0.018 (≈ 0.021 µM) |  | 
CCCCC1CCC(C2CCC(C(=O)N[C@@H](CCN)C(=O)N(C)[C@@H]3C(=O)N[C@@H](C)C(=O)N[C@H](C(=O)NCC#N)Cc4ccc(OCCN)c(c4)-c4cc3ccc4OCCN)CC2)CC1 (some centres unmarked) [Compound 426] | 0.19 (≈ 0.214 µM) | 1.2 | 0.063 (≈ 0.0711 µM) | < 0.0039 |  | 
C[C@@H]1NC(=O)[C@@H](N(C)C(=O)[C@H](CCN)NC(=O)/C=C/c2ccc(-c3ccc(Cl)cc3)cc2)c2ccc(OCCN)c(c2)-c2cc(ccc2OCCN)C[C@@H](C(=O)NCC#N)NC1=O [Compound 427] |  | 1.2 |  | 0.047 (≈ 0.0535 µM) | 1 (≈ 1.14 µM) | 0.063 (≈ 0.0717 µM)
CCCCc1ccc(/C=C/C(=O)N[C@@H](CCN)C(=O)N(C)[C@@H]2C(=O)N[C@@H](C)C(=O)N[C@H](C(=O)NCC#N)Cc3ccc(OCCN)c(c3)-c3cc2ccc3OCCN)cc1 [Compound 428] | 1 (≈ 1.21 µM) | 1.2 | 0.094 (≈ 0.114 µM) | 0.023 (≈ 0.0279 µM) |  | 
Cc1cc(/C=C/c2ccccc2)ccc1C(=O)N[C@@H](CCN)C(=O)N(C)[C@@H]1C(=O)N[C@@H](C)C(=O)N[C@H](C(=O)NCC#N)Cc2ccc(OCCN)c(c2)-c2cc1ccc2OCCN [Compound 429] | 0.75 (≈ 0.874 µM) | 0.81 | 0.063 (≈ 0.0734 µM) | 0.0078 (≈ 0.00909 µM) |  | 
Cc1cc(C2CCCCC2)ccc1C(=O)N[C@@H](CCN)C(=O)N(C)[C@@H]1C(=O)N[C@@H](C)C(=O)N[C@H](C(=O)NCC#N)Cc2ccc(OCCN)c(c2)-c2cc1ccc2OCCN [Compound 431] | 0.88 (≈ 1.05 µM) | 0.77 | 0.063 (≈ 0.0752 µM) | 0.023 (≈ 0.0274 µM) |  | 
C[C@@H]1NC(=O)[C@@H](N(C)C(=O)[C@H](CCN)NC(=O)c2ccc(-c3ccc(C4CCCCC4)cc3)cc2)c2ccc(OCCN)c(c2)-c2cc(ccc2OCCN)C[C@@H](C(=O)NCC#N)NC1=O [Compound 432] |  | 1.4 |  | 0.016 (≈ 0.0178 µM) | 0.13 (≈ 0.144 µM) | 0.094 (≈ 0.104 µM)
CCC(C)c1ccc(C(=O)N[C@@H](CCN)C(=O)N(C)[C@@H]2C(=O)N[C@@H](C)C(=O)N[C@H](C(=O)NCC#N)Cc3ccc(OCCN)c(c3)-c3cc2ccc3OCCN)c(C)c1 (some centres unmarked) [Compound 434] | 2 (≈ 2.46 µM) | 1.5 | 0.25 (≈ 0.308 µM) | 0.047 (≈ 0.0579 µM) |  | 
Cc1cc(C2CCCCCC2)ccc1C(=O)N[C@@H](CCN)C(=O)N(C)[C@@H]1C(=O)N[C@@H](C)C(=O)N[C@H](C(=O)NCC#N)Cc2ccc(OCCN)c(c2)-c2cc1ccc2OCCN [Compound 436] | 0.38 (≈ 0.446 µM) | 0.78 | 0.047 (≈ 0.0552 µM) | 0.0078 (≈ 0.00915 µM) |  | 
CCCCCCCc1cc(F)c(C(=O)N[C@@H](CCN)C(=O)N(C)[C@@H]2C(=O)N[C@@H](C)C(=O)N[C@H](C(=O)NCC#N)Cc3ccc(OCCN)c(c3)-c3cc2ccc3OCCN)c(Cl)c1 [Compound 437] | 0.25 (≈ 0.28 µM) | 0.9 | 0.063 (≈ 0.0706 µM) | 0.0078 (≈ 0.00874 µM) |  | 
CCCCCCCCc1cc(C)c(C(=O)N[C@@H](CCN)C(=O)N(C)[C@@H]2C(=O)N[C@@H](C)C(=O)N[C@H](C(=O)NCC#N)Cc3ccc(OCCN)c(c3)-c3cc2ccc3OCCN)s1 [Compound 438] | 0.38 (≈ 0.435 µM) | 0.78 | 0.063 (≈ 0.0721 µM) | 0.031 (≈ 0.0355 µM) |  | 
CCCCCCCOc1ccc(C(=O)N[C@@H](CCN)C(=O)N(C)[C@@H]2C(=O)N[C@@H](C)C(=O)N[C@H](C(=O)NCC#N)Cc3ccc(OCCN)c(c3)-c3cc2ccc3OCCN)c(C(F)F)c1 [Compound 442] | 0.19 (≈ 0.21 µM) | 2.9 | 0.063 (≈ 0.0695 µM) | 0.0078 (≈ 0.00861 µM) |  | 
Cc1nn(-c2ccc(CC(C)C)cc2)cc1C(=O)N[C@@H](CCN)C(=O)N(C)[C@@H]1C(=O)N[C@@H](C)C(=O)N[C@H](C(=O)NCC#N)Cc2ccc(OCCN)c(c2)-c2cc1ccc2OCCN [Compound 443] | 4 (≈ 4.56 µM) | 0.9 | 0.094 (≈ 0.107 µM) | 0.047 (≈ 0.0535 µM) |  | 
Cc1cc(-n2cc(CC(C)C)cn2)ccc1C(=O)N[C@@H](CCN)C(=O)N(C)[C@@H]1C(=O)N[C@@H](C)C(=O)N[C@H](C(=O)NCC#N)Cc2ccc(OCCN)c(c2)-c2cc1ccc2OCCN [Compound 445] | 1 (≈ 1.14 µM) | 1 | 0.094 (≈ 0.107 µM) | 0.016 (≈ 0.0182 µM) |  | 
